# Data taken from patent US8242166B2, “C(10) ethyl ester and C(10) cyclopropyl ester substituted taxanes” (Florida State University Research Foundation, Inc., priority 2008, dated 2012).
# Like-named read-outs stand apart in the source and are kept apart here.
# What was measured:
# HT29 = experiment: MTT cytotoxicity (IC50), HT29; assay type: cell-based; conditions: Homo sapiens, HT-29, 72 h, read-out: IN Vitro IC50 (nm) HT29
# Experimental: (§1) Compound 17932 was tested in four of these cell lines, while the remaining compounds were tested in all of these cell lines. All cell lines were maintained in RPMI-1640 tissue culture medium (TCM, supplemented with antibiotics and 10% fetal bovine serum) and cultured at 37° C. in humidified air containing 5% CO2. To assess the antiproliferative effects of the test compounds, 172 μL of tumor cell suspension (1.45×10^4 cells/ml) were added to each well of a 96-well plate and incubated for 24 h at 37° C. in 5% CO2 in air to allow cells to adhere. Seven 2-fold drug dilutions in TCM/DMSO were performed in triplicate in separate 96-well plates and 28 μL was transferred to the wells containing tumor cells (200 μL final volume/0.1% DMSO). Plates were incubated for 72 h and cell viability was determined by adding 50 μL of warm TCM containing 5 mg/mL MTT (3-[4,5-dimethylthiazol-2-yl]-2,5-diphenyltetrazolium bromide) to each well and incubating for 1 h at 37° C. Plates were processed and the absorbances of the resulting solutions were measured by a plate reader at 570 nm. […] (GraphPad Prism version 4.00 for Windows). Studies were conducted by Taxolog, Inc., Tallahassee, Fla.
# [1] = system: human MX-1 breast carcinoma; experiment: MX1 xenograft study e219R1, i.v. single dose (Example 17)
# PANC-1 = experiment: MTT cytotoxicity (IC50), PANC-1; assay type: cell-based; conditions: Homo sapiens, 72 h, read-out: IN Vitro IC50 (nm) Panc
# Experimental: as §1
# [2] = system: MX1 human tumor xenografts; conditions: 25 mg/kg iv qd × 1
# [3] = system: human BxPC-3 human pancreatic xenograft; assay type: in vivo; conditions: for T/C % values: from D33
# Experimental: Method: Twenty four (24) hours after a whole body irradiation with a γ-source (7.0 Gy, Co^60, INRA, Dijon, France) 20×10^6 BxPC-3 cells in 200 μl of RPMI 1640 culture medium were subcutaneously injected in the right flank of 8 female Nude rats to generate tumor material. When the tumor size reaches approximately 1,000 mm^3, the tumors were surgically excised for implantation into recipient Nude female rats. Twenty four (24) hours after a whole body irradiation (7.0 Gy, Co^60, INRA, Dijon, France), fresh BxPC-3 tumor fragments were sc implanted in the right flank of 52 Nude female rats (1 fragment/rat) at D0 using surgical pliers and skin was stitched. The antitumor activity study was started at D21 when the mean tumor volume has reached 321.6±131.2 mm^3. Before the start of treatments, 42 tumor bearing rats out of 52 grafted were randomized into 7 groups of 6 animals.
# […]. At 7 mg/kg/inj, only two treatments were performed at D21 and D42 due to severe body weight loss.
# TK-10 = experiment: MTT cytotoxicity (IC50), TK-10; assay type: cell-based; conditions: Homo sapiens, 72 h, read-out: IN Vitro IC50 (nm) TK10
# Experimental: as §1
# [4] = system: HT29 human tumor xenografts; experiment: HT29 xenograft study e139 (Example 23); assay type: in vivo, nude mice
# HCT116 = experiment: MTT cytotoxicity (IC50), HCT116; assay type: cell-based; conditions: Homo sapiens, HCT-116, 72 h, read-out: IN Vitro IC50 (nm) HCT116
# Experimental: as §1, with “All” for “Compound 17932 was tested in four of these cell lines, while the remaining compounds were tested in all of these cell lines. All”
structure (smiles),measurement,setting,value
"CC(=O)O[C@@]12CO[C@@H]1C[C@H](O)[C@@]1(C)C(=O)[C@H](O)C3=C(C)[C@@H](OC(=O)[C@H](O)[C@@H](NC(=O)OC(C)(C)C)c4ccccc4)C[C@@](O)([C@@H](OC(=O)c4ccccc4)[C@H]21)C3(C)C [Docetaxel, docetaxel, reference compound]",IC50,HT29,1.3 nM
same,% TGD,[1]; 25 mg/kg iv qd × 1,89.79%
same,BW Nadir,[1]; 25 mg/kg iv qd × 1,−10.2% (5)
same,"MTV (n), Day 60",[1]; 25 mg/kg iv qd × 1,0.00 (5) mm^3
same,Median TTE,[1]; 25 mg/kg iv qd × 1,61 days
same,T-C,[1]; 25 mg/kg iv qd × 1,28.86 days
same,CR (complete regression),"[1]; 25 mg/kg iv qd × 1, n=5",5
same,NTR (non-treatment-related death),"[1]; 25 mg/kg iv qd × 1, n=5",0
same,PR (partial regression),"[1]; 25 mg/kg iv qd × 1, n=5",0
same,TFS (tumor-free survivor),"[1]; 25 mg/kg iv qd × 1, n=5",4
same,TR (treatment-related death),"[1]; 25 mg/kg iv qd × 1, n=5",0
same,group mean weight loss,[1]; 25 mg/kg qd×1,10.2%
same,transient CR,"[1]; 25 mg/kg qd×1, n=5",1
same,IC50,PANC-1,1.9 nM
same,% TGD,[2],249.47%
same,"MTV (n), Day 60",[2],0.00 (3) mm^3
same,Median TTE,[2],60 days
same,T-C,[2],42.83 days
same,CR (complete regression),[2]; n=5,3
same,NTR (non-treatment-related death),[2]; n=5,0
same,PR (partial regression),[2]; n=5,0
same,TFS (tumor-free survivor),[2]; n=5,2
same,TR (treatment-related death),[2]; n=5,0
same,mice survived to D60,[2]; n=5,Three
same,transient CR,[2]; n=5,1
same,rats found dead,"[3]; 5 mg/kg/inj IV, 6 rats per group",2
same,rats found dead,"[3]; 5 mg/kg/inj IV, 6 rats per group, listed as TXT",two
same,optimal T/C % value,"[3]; 5 mg/kg/inj IV, at D60",3.8%
same,animals with complete tumor regression,"[3]; 5 mg/kg/inj IV, at D81 (final sacrifice), 6 rats per group",one
same,T/C % values,[3]; 5 mg/kg/inj IV,lower than 42%
same,rats found dead,"[3]; 7 mg/kg/inj IV, 6 rats per group",2
same,rats found dead,"[3]; 7 mg/kg/inj IV, 6 rats per group, listed as TXT",Two
same,optimal T/C % value,"[3]; 7 mg/kg/inj IV, at D56",12.3%
same,T/C % values,[3]; 7 mg/kg/inj IV,lower than 42%
same,antitumor activity,[3]; repeated IV injections at 5 and 7 mg/kg/inj,marked antitumor activity
same,IC50,TK-10,1.4 nM
same,Day 54 mm^3 (tumor size),[4]; 25 mg/kg iv q7d × 3,180.6 mm^3
same,Max. BW Loss %; Day,[4]; 25 mg/kg iv q7d × 3,−14.4%; Day 19
same,Number of Death NTR,"[4]; 25 mg/kg iv q7d × 3, N=6",0
same,Number of Death TR,"[4]; 25 mg/kg iv q7d × 3, N=6",0
same,TGD,[4]; 25 mg/kg q7d×3,210%
same,group mean body-weight (BW) loss,[4]; 25 mg/kg q7d×3,14.4%
same,MTV (Day 61),"[4]; 25 mg/kg q7d×3, five mice",196 mm^3
same,LTTFS,"[4]; 25 mg/kg q7d×3, six mice",1
same,PR responses,"[4]; 25 mg/kg q7d×3, six mice",5
same,IC50,HCT116,0.9 nM
